# Laboratory results reported in a melting point compilation (Tetko et al.; mined from patent text by program, amines drawn as free bases though some values may be those of a salt).
row,melting point [°C],SMILES
1,160 to 162,O=C(CC(NC(=O)C(F)(F)F)C(=O)O)c1ccc2c(c1)CCO2 (configuration not stated)
2,82 to 87,CC(=O)OCCSCn1cnc2c(Cl)ncnc21
3,53 to 55,CCC(C)C(CN[C@@H](Cc1ccccc1)C(=O)OCc1ccccc1)NC(=O)OC(C)(C)C (some centres not stated)
4,117 to 119,CC(=O)CC1CC2CN(C(=O)c3ccccc3)c3cccc(c32)C1=O (configuration not stated)
5,78 to 93,CC(Cc1c[nH]c2ccccc12)(NC(=O)OC1C2CC3CC(C2)CC1C3)C(=O)NCC(CSCC(=O)O)c1ccccc1 (configuration not stated)
6,172,CC(C)CCC(=O)CC1c2ccccc2C(=O)N1c1ccc2ccc(Cl)nc2n1 (configuration not stated)
7,182 to 185,O=C1CN(Cc2ccccc2)c2cc(-c3cccc(Cl)c3)ccc2N1
8,173 to 175,Cc1nn(C(N)=O)c2c1C(=O)CC(C)(C)C2
9,154 to 157,CN1CCN(c2cc(Cl)cc3c2c(=O)n(Cc2cccc(Br)c2)c(=O)n3Cc2ccccc2)CC1
10,94 to 95,Fc1cc(Cl)c2ccc(C(F)(F)F)cc2n1
11,98,Cc1c(Cl)cc(C(C)C)c(-c2c(C(C)C)cc(Cl)c(C)c2O)c1O
12,93 to 97,CC(O)c1cccc(Oc2ncccc2OCCCc2ccncc2)c1 (configuration not stated)
13,201,O=C(Nc1ccc(C2CC(F)(F)C2(F)Cl)cc1)Nc1nonc1-c1ccccc1 (configuration not stated)
14,267,CN(C)C(=O)N1CC2(CCN(C(=O)Nc3nnc(-c4ccccc4)s3)CC2)c2ccccc21
15,154 to 156,COc1ccc2c(c1O)NC(OC)C1CCCN1C2=O (configuration not stated)
16,271 to 273,c1ccc2c(c1)ccc1c(-c3ccncc3)[nH]nc12
17,236 to 240,C#CCC1(c2ccccc2)Cc2cc(OCC(=O)O)c(Cl)c(Cl)c2C1=O (configuration not stated)
18,186 to 187,O=C1C2CCCCN2C(=O)N1c1ccccc1 (configuration not stated)
19,140 to 141,CCOc1ccc(-n2c(NCc3ccc(Br)cc3)nc3ccc(Cl)cc32)cc1
20,258 to 259,O=C(O)c1ccc2c(c1)C=C(Cn1ccnc1)CO2
21,120 to 123,CN1C(=O)C(c2ccccc2)NC(=O)/C1=C/c1c[nH]c2ccccc12 (configuration not stated)
22,128 to 130,COc1cccc(-c2nc(-c3ccccc3COC(=O)c3ccccc3)n[nH]2)c1
23,117 to 119,N#COc1ccc(OC#N)cc1
24,198 to 199,Nc1nc(NCC=Cc2ccccc2)nc(-c2cc(Cl)ccc2Cl)n1

row,melting point [°C],SMILES
1,178 to 183,O=C(O)Cc1cccc(Oc2cccc(Cl)c2Cl)c1[N+](=O)[O-]
2,81 to 82,CC(C)(CO)N1CC(COc2cccc(Cl)c2)OC1=O (configuration not stated)
3,152 to 153,COC(=O)c1nc(I)cc(N)c1Cl
4,68 to 71,COc1ccc(Nc2ccn(Cc3ccccc3)n2)cc1
5,252 to 255,Cc1ccc2[nH]c(=O)cc(CCO)c2c1
6,72 to 75,CCOC(=O)C(C)(OC)C(=O)Nc1cc(Cl)cc(Cl)c1 (configuration not stated)
7,195 to 199,CCc1nc(-c2ccccc2)[nH]c(=O)c1C
8,141,COC(=O)c1cc(C#N)cc2c1OC(c1ccccc1)(c1ccccc1)O2
9,108 to 125,CNC(=O)c1cccc(C=NNc2ccc(C)cc2)c1O
10,181 to 182,COC(=O)c1ccc2c(c1)S(=O)(=O)c1ccccc1N=C2
11,130 to 131,Cc1ccc(NC(Nc2ccc(C)cc2)Nc2ccc(C)cc2)cc1
12,138 to 139,COc1ccc(Cl)cc1C(=O)NCCC1CCN(S(=O)(=O)NC(=O)NC2CC2)CC1
13,140,Cc1cc(-c2nc(-c3ccc(OC(F)(F)F)cc3)no2)nn1Cc1ccnc(N2CCN(C3CC3)CC2)c1
14,222 to 228,CC1(C)CCC(C)(C)c2cc(C3(c4ccc(C(=O)O)cc4)OCCO3)c(OCc3ccccc3)cc21
15,126 to 128,COc1cc(C(=O)NC2OCC(c3ccccc3)N3CCCCC23)cc(OC)c1OC (configuration not stated)
16,112 to 115,Cc1cnc(C)n1CC(=O)c1ccc(-c2ccc(N3C[C@H](Cn4ccnn4)OC3=O)cc2F)cn1
17,281 to 282,N#Cc1c(Cl)c(F)cc2c(=O)c(C(=O)O)cn(C3CC3)c12
18,130,O=[N+]([O-])c1ccc(O)c(-c2cccs2)c1
19,253 to 254,Cc1oc2c(C)c(C)c(NC(=O)CC(C)(C)C)c(C)c2c1-c1ccc(C(C)C)cc1
20,205 to 207,NC(C(=O)CCC(=O)O)c1ccc(Nc2n[nH]c3ncnc(Nc4cccc(Cl)c4)c23)cc1 (configuration not stated)
21,123 to 124,O=C(Nc1ccc(Br)c(C(F)(F)F)c1)c1ccccc1NCc1ccncc1
22,98,COc1ccc2ncnc(N3CCCc4ccccc43)c2c1
23,198 to 201,O=C1Nc2cc(Cl)c(Cl)cc2C1c1ccccc1Cl (configuration not stated)
24,235,Cn1c(=O)c(C#N)c(Cl)c2ccccc21

row,melting point [°C],SMILES
1,212 to 215,COc1ccc2c(c1)CC(=O)NC2=O
2,155,CCCCOc1ccc(S(=O)(=O)C2(C(=O)NO)CCN(Cc3ccc(OCCN4CCCCC4)cc3)CC2)cc1
3,232 to 233,N#CCOc1cc(O)ccc1-c1nc2nccnc2[nH]1
4,127 to 129,Cc1cc(SC2=C(O)CC(C3CCCC3)(C3CCCC3)OC2=O)c(C(C)(C)C)cc1NS(=O)(=O)c1ccc(C(F)(F)F)cn1
5,168,CCOC(=O)COc1cccc2cc(S(N)(=O)=O)sc12
6,166,O=S(=O)(c1ccc2ccccc2c1)N1CCCC1c1ccc(F)cc1 (racemic)
7,167 to 170,O=C(O)C(=O)c1ccc(OCC(=O)c2ccc3ccccc3c2)cc1
8,147 to 148,CCCCCCC1(Br)CC(=CNc2ccccc2)OC1=O (configuration not stated)
9,268 to 270,COc1cccc(Oc2cccc(-c3c(O)c4ccc(Cl)cc4[nH]c3=O)c2)c1
10,127 to 130,NC(=O)c1cn(C(CO)CCc2ccccc2)cn1 (configuration not stated)
11,110 to 112,CCCc1c(OCc2cccc(C(=O)NCCCc3cccnc3)c2)ccc(C(C)=O)c1O
12,108 to 110,CC(C)[C@H](NC(=O)[C@H](CC(=O)OC(C)(C)C)NC(=O)CNC(=O)c1csc(NC(=O)NCc2ccccc2)n1)C(=O)OC(C)(C)C
13,160 to 162,CC(c1ccc2c(c1)Cc1ccccc1-2)n1ccnn1 (configuration not stated)
14,208 to 210,CCCc1nc2c(N)nc(C)c(C)c2n1CC(C)(C)NC(=O)c1ccccc1
15,180 to 185,COc1ccc(-c2cc(Nc3ccc(NS(C)(=O)=O)cc3)nc(C)n2)cc1OC
16,193 to 194,CCOC(=O)C(=CNc1cnc2ccccc2n1)c1ccccc1
17,168,CON=C(c1ccc(OC(C)(C)C(=O)O)cc1)c1cccs1
18,142 to 143,O=C(O[C@@H]1[C@@H](Br)C[C@]2(O)C[C@H]1OC2=O)c1ccccc1
19,85 to 88,CC(C)CN1CCN(CCc2ccc(-c3cccc(N)n3)cc2)CC1
20,114 to 115,CC1CC(C)CN(C(=O)c2ccc(Cl)cc2)C1 (configuration not stated)
21,129 to 130,O=C(NCCCSc1ccncc1)c1cc(Br)c(Br)s1
22,94 to 95,CSc1cccc(-c2ccccc2NC(=N)N(C)C)c1

row,SMILES,melting point [°C]
1,CN(C)CC#CCNC(=O)/C=C\C(=O)O,155 to 157
2,CCCCCCc1cc2c(s1)-n1c(C)nnc1CN=C2c1ccc(C)cc1,74 to 76
